Reference: ChEMBL document CHEMBL5214899, “Tailor-made amino acids in the design of small-molecule blockbuster drugs” (Eur J Med Chem, 2021)

Key:
[1] = system: Human immunodeficiency virus 1; assay: Antiviral activity against HIV-1 IIIb infected in human MT2 cells assessed as reduction in virus induced cytopathic effect and measured after 5 days by XTT assay; assay type: functional, organism-based; settings: Human immunodeficiency virus 1, IIIb, MT2, 120 h
[2] = Inhibition of TNF-alpha release in LPS stimulated human PBMC; assay type: functional, cell-based
SARS-CoV = assay: Antiviral activity against SARS 2019-nCoV infected in African green monkey Vero E6 cells assessed as inhibition of viral infection preincubated and measured after 48 hrs by qRT-PCR analysis; assay type: functional; settings: Severe acute respiratory syndrome-related coronavirus, Vero C1008

SMILES: C[C@H](Cn1cnc2c(N)ncnc21)OCP(=O)(O)N[C@H](C)C(=O)O
- EC50 [1]: 10 µM

SMILES: Nc1cccc2c1CN(C1CCC(=O)NC1=O)C2=O (centres undefined) [LENALIDOMIDE]
- IC50 [2]: 0.1 µM

SMILES: CCC(CC)COC(=O)[C@H](C)N[P@](=O)(OC[C@H]1O[C@@](C#N)(c2ccc3c(N)ncnn23)[C@H](O)[C@@H]1O)Oc1ccccc1 [REMDESIVIR]
- EC90 (SARS-CoV): 1.76 µM

SMILES: C[C@H](Cn1cnc2c(N)ncnc21)OCP(=O)(O)O [TENOFOVIR ANHYDROUS]
- EC50 [1]: 5 µM
